Experimental data as given in patent publication US8053426B2, “Progesterone receptor antagonists” (Bayer Schering Pharma AG, priority 2006, dated 2011).

What was measured:
[1] = Metabolic stability in human liver microsomes (HLM); format: in vitro ADME; conditions: 60 minutes, 37° C.
Method: Human liver microsomes (HLM) were used to assess the metabolic stability of substances of general formula I.
The incubations were carried out in duplicate with HLM and an NADPH-generating system using a shaker bath at 37° C. The incubation mixture (consisting of cofactor solution, potassium phosphate buffer and microsome preparation) was freshly prepared according to the Table below.
The incubation volume was 0.25 ml. The incubation mixture was preincubated for three minutes at 37° C. The reaction was started by the addition of the test substance (final concentration 50 μM). The reaction was ended after an incubation time of 60 minutes by the addition of 250 μl of methanol and the mixture was then centrifuged to pellet the protein. The samples were stored at −18° C. for subsequent RP-HPLC analysis.
The incubation volume was 0.25 ml. The incubation mixture was preincubated for three minutes at 37° C. The reaction was started by the addition of the test substance (final concentration 10 μM). The reaction was ended after an incubation time of 60 minutes by the addition of 250 μl of methanol and the mixture was then centrifuged to pellet the protein. The samples were stored at −18° C. for subsequent RP-HPLC analysis.

[2] = target: T1, human progesterone receptor A (PR-A) (Homo sapiens, UniProt P06401); experiment: Antagonistic activity against promegestone, MTV-LUC reporter in SK-N-MC cells stably transfected with PR-A; format: cell-based; conditions: for selectivity in respect of one progesterone receptor isoform: PR-A versus PR-B; for selectivity in respect of one progesterone receptor isoform / Efficacy, PR-A / IC50: SK-N-MC cells; for Efficacy, PR-A / IC50: antagonistic activity vs 0.1 nmol/l promegestone, mean ± SD; for IC50: read-out: Potency IC50, PR-A; for times less potent than 11β-(4-acetylphenyl)-20,20,21,21,21-pentafluoro-17-hydroxy-19-nor-17α-pregna-4,9-dien-3-one at the progesterone receptors: antagonistic potency, figures match the ratio of the PR-A IC50 values
T1 construct: expressed in transfected cells; host or cells: SK-N-MC human neuroblastoma cells, stably transfected with pRChPR-A-neo and pMMTV-LUC
T1 sequence (P06401 1-769 isoform P06401-2): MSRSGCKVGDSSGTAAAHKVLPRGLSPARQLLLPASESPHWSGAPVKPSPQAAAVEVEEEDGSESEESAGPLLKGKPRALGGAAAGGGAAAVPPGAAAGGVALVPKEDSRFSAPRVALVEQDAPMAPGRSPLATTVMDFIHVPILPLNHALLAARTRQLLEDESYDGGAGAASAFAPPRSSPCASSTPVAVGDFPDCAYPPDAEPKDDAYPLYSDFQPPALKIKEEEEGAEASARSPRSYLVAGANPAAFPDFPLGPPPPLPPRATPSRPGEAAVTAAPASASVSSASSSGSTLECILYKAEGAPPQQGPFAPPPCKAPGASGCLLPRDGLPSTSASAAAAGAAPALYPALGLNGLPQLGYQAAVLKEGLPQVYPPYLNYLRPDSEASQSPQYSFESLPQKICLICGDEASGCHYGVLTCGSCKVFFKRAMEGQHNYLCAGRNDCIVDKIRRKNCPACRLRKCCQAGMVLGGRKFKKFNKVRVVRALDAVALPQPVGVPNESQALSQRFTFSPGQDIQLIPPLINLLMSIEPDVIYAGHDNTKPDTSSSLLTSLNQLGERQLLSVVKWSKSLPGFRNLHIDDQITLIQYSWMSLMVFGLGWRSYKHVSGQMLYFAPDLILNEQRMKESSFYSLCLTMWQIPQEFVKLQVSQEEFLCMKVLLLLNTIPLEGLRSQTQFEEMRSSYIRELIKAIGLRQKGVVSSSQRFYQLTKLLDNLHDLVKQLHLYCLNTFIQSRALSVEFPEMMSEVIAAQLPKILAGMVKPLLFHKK
Method: (§1) SK-N-MC cells (human neuroblastoma cells), stably transfected with plasmids, which express human progesterone receptor B (pRChPR-B-neo) or human progesterone receptor A (pRChPR-A-neo) and a reporter construct (pMMTV-LUC), were incubated for 24 hours, either in the absence (negative control) or in the presence of increasing amounts of 11β-[4-(1,2-dihydroxy-ethyl)phenyl]-20,20,21,21,21-pentafluoro-17-hydroxy-19-nor-17α-pregna-4,9-dien-3-one or 20,20,21,21,21-pentafluoro-17-hydroxy-11β-[4-(hydroxyacetyl)-phenyl]-19-nor-17α-pregna-4,9-dien-3-one (0.01 nmol/l, 0.1 nmol/l, 1 nmol/l, 10 nmol/l, 100 nmol/l and 1 μmol/l), in order to determine the agonistic efficacy. As a positive control of reporter gene induction, the cells were treated with the synthetic gestagen promegestone (0.01 nmol/l, 0.1 nmol/l, 1 nmol/l, 10 nmol/l, 100 nmol/l and 1 μmol/l). To determine the antagonistic activity, the cells were treated with 0.1 nmol/l of promegestone and additionally with increasing amounts of 11β-[4-(1,2-dihydroxyethyl)phenyl]-20,20,21,21,21-pentafluoro-17-hydroxy-19-nor-17α-pregna-4,9-dien-3-one or 20,20,21,21,21-pentafluoro-17-hydroxy-11β-[4-(hydroxyacetyl)phenyl]-19-nor-17α-pregna-4,9-dien-3-one (0.01 nmol/l, 0.1 nmol/l, 1 nmol/l, 10 nmol/l, 100 nmol/l and 1 μmol/l). […] The activity of the LUC reporter gene (LUC=luciferase) was determined in the cell lyzates and measured as RLU (relative light units).

[3] = target: T1, human progesterone receptor A (PR-A); experiment: Agonistic activity, MTV-LUC reporter in SK-N-MC cells stably transfected with PR-A; format: cell-based; conditions: 24 hours; for Efficacy, PR-A: relative LUC activity
Method: as §1

[4] = target: T2, human progesterone receptor B (PR-B) (Homo sapiens, UniProt P06401); experiment: Antagonistic activity against promegestone, MTV-LUC reporter in SK-N-MC cells stably transfected with PR-B; format: cell-based; conditions: antagonistic activity vs 0.1 nmol/l promegestone, mean ± SD; for IC50: read-out: Potency IC50, PR-B
T2 construct: expressed in transfected cells; host or cells: SK-N-MC human neuroblastoma cells, stably transfected with pRChPR-B-neo and pMMTV-LUC
T2 sequence (P06401 1-933): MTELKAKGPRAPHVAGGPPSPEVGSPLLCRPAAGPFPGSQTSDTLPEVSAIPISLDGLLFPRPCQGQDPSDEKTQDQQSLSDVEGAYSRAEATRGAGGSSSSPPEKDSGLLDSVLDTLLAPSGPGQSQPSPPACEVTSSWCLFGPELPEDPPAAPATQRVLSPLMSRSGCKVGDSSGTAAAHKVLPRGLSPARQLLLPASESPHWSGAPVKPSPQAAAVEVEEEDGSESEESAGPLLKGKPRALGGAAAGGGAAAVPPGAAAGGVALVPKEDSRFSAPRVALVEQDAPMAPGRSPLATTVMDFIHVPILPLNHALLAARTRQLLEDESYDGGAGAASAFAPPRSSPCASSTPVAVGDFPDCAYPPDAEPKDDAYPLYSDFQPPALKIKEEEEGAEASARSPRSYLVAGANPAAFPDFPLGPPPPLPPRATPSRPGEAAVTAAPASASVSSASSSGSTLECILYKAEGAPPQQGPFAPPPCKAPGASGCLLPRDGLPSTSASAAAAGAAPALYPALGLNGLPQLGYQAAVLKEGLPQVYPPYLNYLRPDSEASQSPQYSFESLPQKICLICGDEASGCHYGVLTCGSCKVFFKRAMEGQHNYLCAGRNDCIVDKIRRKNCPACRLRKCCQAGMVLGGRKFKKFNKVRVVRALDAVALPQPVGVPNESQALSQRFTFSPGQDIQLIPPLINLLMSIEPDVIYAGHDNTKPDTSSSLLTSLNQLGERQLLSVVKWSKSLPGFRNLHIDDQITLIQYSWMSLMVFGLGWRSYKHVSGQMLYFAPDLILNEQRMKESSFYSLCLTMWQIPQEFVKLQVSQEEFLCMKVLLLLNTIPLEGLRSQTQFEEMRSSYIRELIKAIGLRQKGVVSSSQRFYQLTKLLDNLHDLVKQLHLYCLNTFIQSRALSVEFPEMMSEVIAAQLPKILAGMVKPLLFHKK
Method: as §1

pregnant rats = experiment: Abortion test on female rats; format: in vivo, rat; conditions: 1.5 mg/kg subcutaneously daily d5-d7 p.c., autopsy d9 p.c.
Method: The antigestagenic action of the progesterone receptor antagonists according to the invention was tested on pregnant rats (6 rats per group) on days 5 to 7 post coitum under conventional housing and feeding conditions.
After successful copulation, the pregnant animals (presence of sperm in the vaginal smear on day 1 of pregnancy=d1 p.c.) were randomized and divided up into the treatment group and the control group. Each animal was then injected subcutaneously with 1.5 mg/kg of the test substance (11β-[4-(1,2-Dihydroxyethyl)phenyl]-20,20,21,21,21-pentafluoro-17-hydroxy-19-nor-17α-pregna-4,9-dien-3-one according to Example 1 or 20,20,21,21,21-pentafluoro-17-hydroxy-11β-[4-(hydroxyacetyl)phenyl]-19-nor-17α-pregna-4,9-dien-3-one according to Example 3) or 1.0 ml/kg of vehicle (benzyl benzoate/castor oil: 1+4[v/v]) daily from day 5 to day 7 (d5-d7 p.c.).
The autopsy was performed on day 9 (d9 p.c.). As the parameter of antigestagenic action, the uterus was examined for the presence of implantation sites. The complete absence of implantation sites as well as the presence of pathological, hemorrhagic or otherwise abnormal implantation sites on day 9 (d9 p.c.) were evaluated as abortions.

35-day-old rabbits = experiment: Determination of the McPhail index on the rabbit; format: in vivo; conditions: 3 mg/kg/d test substance + 0.2 mg/kg/d progesterone s.c. day 7 to 10, autopsy day 11, 1=no, 4=maximum glandular differentiation
Method: The antigestagenic efficacy of the progesterone receptor antagonists according to the invention was tested on 35-day-old rabbits under conventional housing and feeding conditions.
As a preparatory measure, the animals were treated subcutaneously with 5.0 μg/kg/d with 17β-estradiol from day 1 to day 4. To determine the antigestagenic efficacy, the animals were treated subcutaneously from day 7 to day 10 with 0.2 mg/kg/d of progesterone and 3 mg/kg/d of the test substance (11β-[4-(1,2-Dihydroxyethyl)phenyl]-20,20,21,21,21-pentafluoro-17-hydroxy-19-nor-17α-pregna-4,9-dien-3-one according to Example 1 or 20,20,21,21,21-pentafluoro-17-hydroxy-11β-[4-(hydroxyacetyl)phenyl]-19-nor-17α-pregna-4,9-dien-3-one according to Example 3) simultaneously. The vehicle used was a mixture of benzyl benzoate and castor oil in a ratio of 1+4 (v/v).
The autopsy was performed on day 11 after the start of treatment. The uteri were removed and fixed for histology. The McPhail index (degree of glandular differentiation) was determined by means of light microscopy (evaluation: 1=no glandular differentiation; 4=maximum glandular differentiation) as the parameter of antigestagenic efficacy (inhibition of the glandular differentiation caused by progesterone).

[5] = target: T2, human progesterone receptor B (PR-B); experiment: Agonistic activity, MTV-LUC reporter in SK-N-MC cells stably transfected with PR-B; format: cell-based; conditions: 24 hours; for Efficacy, PR-B: relative LUC activity
Method: as §1

[6] = HLM 1.0 mg/ml, test substance 50 μM

Compound	recovered in the supernatant (RP-HPLC) [1, 6]	selectivity in respect of one progesterone receptor isoform [2]	Efficacy, PR-A [2] [%]	IC50 [2] [nM]	times less potent than 11β-(4-acetylphenyl)-20,20,21,21,21-pentafluoro-17-hydroxy-19-nor-17α-pregna-4,9-dien-3-one at the progesterone receptors [2]	Efficacy, PR-A [3]	Efficacy, PR-B [4] [%]	IC50 [4] [nM]	Abortion rate (pregnant rats) [%]	McPhail index [median] (35-day-old rabbits)	Efficacy, PR-B [5]	recovered in the supernatant (RP-HPLC) ([1]; HLM 0.4 mg/ml, test substance 10 μM) [%]	EC50 ([3]; mean ± SD, read-out: Potency EC50, PR-A) [nM]	EC50 ([5]; mean ± SD, read-out: Potency EC50, PR-B) [nM]
C[C@]12C[C@H](c3ccc(C(O)CO)cc3)C3=C4CCC(=O)C=C4CC[C@H]3[C@@H]1CC[C@@]2(O)C(F)(F)C(F)(F)F (mixture of isomers) [Example 1, 11β-[4-(1,2-dihydroxyethyl)phenyl]-20,20,21,21,21-pentafluoro-17-hydroxy-19-nor-17α-pregna-4,9-dien-3-one]	about 70%	Neither compound exhibits any selectivity	100 ± 0	1.87 ± 0.23	about 130 times	no effect	100 ± 0	3.47 ± 0.46	100	1.0	no effect			
CC(=O)c1ccc([C@H]2C[C@@]3(C)[C@@H](CC[C@@]3(O)C(F)(F)C(F)(F)F)[C@@H]3CCC4=CC(=O)CCC4=C32)cc1 [11β-(4-acetylphenyl)-20,20,21,21,21-pentafluoro-17-hydroxy-19-nor-17α-pregna-4,9-dien-3-one, reference compound]			100 ± 0	0.014 ± 0.01			100 ± 0	0.02 ± 0.01				60		
C[C@]12C[C@H](c3ccc(C(=O)CO)cc3)C3=C4CCC(=O)C=C4CC[C@H]3[C@@H]1CC[C@@]2(O)C(F)(F)C(F)(F)F [Example 3, 20,20,21,21,21-pentafluoro-17-hydroxy-11β-[4-(hydroxyacetyl)phenyl]-19-nor-17α-pregna-4,9-dien-3-one]	about 80%	Neither compound exhibits any selectivity	100 ± 0	0.18 ± 0.06	about 13 times	no effect	100 ± 0	0.28 ± 0.08	100	1.0	no effect			
CCC(=O)[C@@]1(C)CC[C@H]2[C@@H]3CCC4=CC(=O)CCC4=C3CC[C@@]21C [Promegestone, promegestone, reference compound]						100%					100%		0.23 ± 0.03	0.03
